The values below come from patent publication US20240132513A1, “BENZAZEPINE DERIVATIVES, COMPOSITIONS, AND METHODS FOR TREATING COGNITIVE IMPAIRMENT” (AGENEBIO, INC., priority 2022, published 2024).

Data set [1] concerns the target T1, GABAA α5 receptor (Rattus norvegicus, UniProt P19969).
T1 construct: from tissue; host or cells: rat brain in vivo; hippocampus versus cerebellum
As to the kind of experiment: GABAA α5 receptor occupancy with Ro 15-4513 tracer. The format is in vivo, Long Evans rats. Conditions: i.v. The source says: Food and water were available ad libitum.

For data set [2], the target named is T2, GABAA R (α5β2γ2) (Homo sapiens, UniProt P18507+P31644).
T2 construct: expressed in transfected cells
As to the kind of experiment: Positive allosteric modulator activity: potentiation of EC20 GABA current in oocytes. It is filed as cell-based. The essentials:
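Xenopus oocytes injected with 1 ng α5:β2:γ2 cDNA (1:1:10 by weight), tested day 2, voltage-clamped at −60 mV under MBS superfusion.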

The target in data set [3] is α5β3γ2 GABAA R (Homo sapiens, UniProt P18507+P31644). As to the kind of experiment: Binding activity on GABAA R: inhibition of [3H]Ro15-1788 binding, α5 containing receptor. An outline of the steps: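 Membranes from dexamethasone-induced (0.5 μM, 1 day) Ltk cells stably expressing α5β3γ2 receptors, 0.2 mg/ml protein, incubated with [3H]Ro15-1788 for 1 h at 4 °C in 50 mM KH2PO4/1 mM EDTA/0.2 M KCl, pH 7.4. Nonspecific binding with 10 μM diazepam; bound ligand by GF/B filtration and scintillation counting, triplicates.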

Setting [4] is: read-out: GABA α5 Functional Data: potentiation, @ 100 nM, EC20 GABA, ranges of the column heads.
[5] abbreviates: read-out: GABA α5 Functional Data: potentiation.
Setting [6] is: ranges of the column heads, [3H]Ro15-1788, Ltk cell membranes.

The term Ki denotes the equilibrium dissociation constant of an inhibitor or competing ligand from its target. The low end stands for higher affinity, the high end for lower affinity.

Like-named read-outs stand apart in the source and are kept apart here.

T1 sequence (P19969 32-464 limits assumed): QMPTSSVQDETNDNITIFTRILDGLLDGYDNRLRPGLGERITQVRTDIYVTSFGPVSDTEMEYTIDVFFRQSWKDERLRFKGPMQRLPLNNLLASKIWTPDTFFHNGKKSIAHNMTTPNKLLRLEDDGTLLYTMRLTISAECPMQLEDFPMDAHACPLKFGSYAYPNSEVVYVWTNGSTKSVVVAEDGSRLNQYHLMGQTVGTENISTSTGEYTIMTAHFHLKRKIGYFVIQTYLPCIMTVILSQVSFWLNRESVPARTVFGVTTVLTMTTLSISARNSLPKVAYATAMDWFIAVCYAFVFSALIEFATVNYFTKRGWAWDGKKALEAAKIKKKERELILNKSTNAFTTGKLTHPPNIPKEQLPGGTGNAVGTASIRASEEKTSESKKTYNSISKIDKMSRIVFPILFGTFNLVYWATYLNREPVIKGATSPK
T2 sequence (P31644 32-462): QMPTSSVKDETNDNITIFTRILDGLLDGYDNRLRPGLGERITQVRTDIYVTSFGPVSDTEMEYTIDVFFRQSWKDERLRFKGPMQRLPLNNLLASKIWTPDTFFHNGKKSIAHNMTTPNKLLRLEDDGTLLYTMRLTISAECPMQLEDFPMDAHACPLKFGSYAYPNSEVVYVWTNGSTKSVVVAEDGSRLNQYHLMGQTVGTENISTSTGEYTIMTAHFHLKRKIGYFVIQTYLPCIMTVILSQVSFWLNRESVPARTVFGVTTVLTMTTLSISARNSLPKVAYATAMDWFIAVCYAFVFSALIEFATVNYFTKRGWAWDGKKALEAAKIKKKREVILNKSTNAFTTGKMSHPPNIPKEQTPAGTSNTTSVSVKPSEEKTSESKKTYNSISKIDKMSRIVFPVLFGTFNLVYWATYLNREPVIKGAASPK
T2 sequence (P47870 25-512 partner limits assumed): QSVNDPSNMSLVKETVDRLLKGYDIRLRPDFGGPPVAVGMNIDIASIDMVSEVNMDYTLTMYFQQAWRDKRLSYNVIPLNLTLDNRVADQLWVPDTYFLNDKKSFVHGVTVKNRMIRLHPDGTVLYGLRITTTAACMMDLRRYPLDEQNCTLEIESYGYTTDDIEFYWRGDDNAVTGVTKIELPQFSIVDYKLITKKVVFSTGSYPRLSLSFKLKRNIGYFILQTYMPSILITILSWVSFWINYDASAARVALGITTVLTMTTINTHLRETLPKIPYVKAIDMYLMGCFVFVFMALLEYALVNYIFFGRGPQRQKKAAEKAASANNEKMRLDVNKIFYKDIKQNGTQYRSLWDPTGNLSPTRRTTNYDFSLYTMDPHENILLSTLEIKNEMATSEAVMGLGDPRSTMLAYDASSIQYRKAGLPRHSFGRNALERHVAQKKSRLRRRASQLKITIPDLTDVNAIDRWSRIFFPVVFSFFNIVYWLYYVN
T2 sequence (P18507 40-475): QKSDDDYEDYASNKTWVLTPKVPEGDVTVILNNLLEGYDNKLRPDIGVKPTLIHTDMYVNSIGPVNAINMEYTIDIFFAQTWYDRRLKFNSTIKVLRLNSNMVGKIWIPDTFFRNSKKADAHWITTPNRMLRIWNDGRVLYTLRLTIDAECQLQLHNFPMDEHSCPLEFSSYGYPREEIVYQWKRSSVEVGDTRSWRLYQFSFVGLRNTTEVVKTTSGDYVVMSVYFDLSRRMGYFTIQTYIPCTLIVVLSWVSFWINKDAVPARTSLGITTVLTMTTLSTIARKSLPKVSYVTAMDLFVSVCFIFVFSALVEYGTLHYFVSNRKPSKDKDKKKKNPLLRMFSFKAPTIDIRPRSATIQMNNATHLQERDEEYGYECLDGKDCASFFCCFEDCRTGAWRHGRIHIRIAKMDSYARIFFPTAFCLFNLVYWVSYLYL
Chain of α5β3γ2 GABAA R (P31644 32-462): as the sequence (P31644 32-462) above
Chain of α5β3γ2 GABAA R (P28472 26-473 partner): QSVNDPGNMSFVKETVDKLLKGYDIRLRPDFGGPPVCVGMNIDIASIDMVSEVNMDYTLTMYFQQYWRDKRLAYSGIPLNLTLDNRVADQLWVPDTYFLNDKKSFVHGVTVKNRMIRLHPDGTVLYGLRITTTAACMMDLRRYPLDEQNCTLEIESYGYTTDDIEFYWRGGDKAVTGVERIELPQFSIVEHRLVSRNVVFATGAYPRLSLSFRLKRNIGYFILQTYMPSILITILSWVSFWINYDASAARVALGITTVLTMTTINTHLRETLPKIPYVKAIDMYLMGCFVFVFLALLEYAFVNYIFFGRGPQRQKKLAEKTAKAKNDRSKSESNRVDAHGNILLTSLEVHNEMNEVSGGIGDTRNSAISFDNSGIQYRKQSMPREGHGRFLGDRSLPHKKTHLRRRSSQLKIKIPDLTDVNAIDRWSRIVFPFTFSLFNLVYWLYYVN
Chain of α5β3γ2 GABAA R (P18507 40-475): as the sequence (P18507 40-475) above

As to `CCOC(=O)c1ncn2c1CN(C)C(=O)c1cc(N=[N+]=[N-])ccc1-2` [Ro 15-4513], in data set [1] (tracer 1 μg/kg, after vehicle), the “level of Ro 15-4513 in cerebellum” value amounted to 0.36 ± 0.02 ng/g, the “level of Ro 15-4513 in hippocampus” value is 1.93 ± 0.05 ng/g and the “levels of Ro 15-4513 in hippocampus compared with cerebellum” value is > 5 fold.

On to `COc1ccc2c(c1)-c1nn(CC3CCCO3)cc1Cc1c(-c3noc(C(F)(F)F)n3)ncn1-2` (centres unmarked) [Compound 295], for which the activation at 0.1 µM in data set [2] (setting [4]) lay in the range of 20 to 50%. In addition, in data set [3], the inhibitory constant (Ki) is < 100 nM.

For the compound `COc1ccc2c(c1)-c1nn(C)cc1Cc1c(-c3noc(C4COC4)n3)ncn1-2` [Compound 202], in data set [2] (setting [4]), the activation at 0.1 µM is 20 to 50%. Also, the Ki in data set [3] is < 100 nM.

Turning to `COc1ccc2c(c1)-c1nn(C)cc1Cc1c(-c3nc(C4CCOCC4)no3)ncn1-2` [Compound 220], in data set [2] (setting [4]), the activation at 0.1 µM lay within 20 to 50%. In addition, the Ki in data set [3] was < 100 nM.

For the compound `COCc1nc(-c2ncn3c2Cc2cn(C)nc2-c2cc(Cl)ccc2-3)no1` [Compound 155], in data set [2] (setting [4]), the activation at 0.1 µM was 20 to 50%. For the same compound, in data set [3], the inhibition constant Ki is < 100 nM.

With `CCn1cc2c(n1)-c1cc(Cl)ccc1-n1cnc(-c3nc(C(C)C)no3)c1C2` [Compound 104], in data set [2] (setting [5]), the activation at 0.1 µM fell in the range of 5 to 20%. In addition, the Ki in data set [3] (setting [6]) was < 100 nM.

With `CC(C)c1noc(-c2ncn3c2Cc2cn(CC4CCOC4)nc2-c2cc(Cl)ccc2-3)n1` (centres unmarked) [Compound 201], in data set [2] (setting [4]), the activation at 0.1 µM is 5 to 20%. The Ki in data set [3] was < 100 nM.

For the compound `COC(C)(C)c1nc(-c2ncn3c2Cc2cn(CC4CCCO4)nc2-c2cc(Cl)ccc2-3)no1` (centres unmarked) [Compound 306], in data set [2] (setting [4]), the activation at 0.1 µM fell in the range of 5 to 20%. In data set [3], the Ki is < 100 nM.

`Cn1cc2c(n1)-c1cc(Cl)ccc1-n1cnc(-c3noc(C4(F)CC4)n3)c1C2` [Compound 218]: the activation at 0.1 µM in data set [2] (setting [4]) lay in the range of 20 to 50%. Further, the Ki in data set [3] was < 100 nM.

As for `COc1ccc2c(c1)-c1nn(C)cc1Cc1c(-c3nnc(C)o3)ncn1-2` [Compound 290], the activation at 0.1 µM in data set [2] (setting [4]) was 20 to 50%. In addition, the Ki in data set [3] is < 100 nM.

Take `CCOCc1nc(-c2ncn3c2Cc2cn(C)nc2-c2cc(OC)ccc2-3)no1` [Compound 137]: the activation at 0.1 µM in data set [2] (setting [4]) fell in the range of 20 to 50%. The Ki in data set [3] is < 100 nM.

Turning to `Cn1cc2c(n1)-c1cc(Cl)ccc1-n1cnc(-c3noc(C4CC4)n3)c1C2` [Compound 142], the activation at 0.1 µM in data set [2] (setting [4]) is 20 to 50%. In addition, the Ki in data set [3] is < 100 nM.

Turning to `Cc1nc(-c2ncn3c2Cc2cn(C(C)C)nc2-c2cc(Cl)ccc2-3)no1` [Compound 147], in data set [2] (setting [5]), the activation at 0.1 µM was 5 to 20%. For the same compound, the Ki in data set [3] (setting [6]) was < 100 nM.

With `CCn1cc2c(n1)-c1cc(OC)ccc1-n1cnc(-c3nc(C(C)C)no3)c1C2` [Compound 151], in data set [2] (setting [4]), the activation at 0.1 µM fell in the range of 5 to 20%. Further, the Ki in data set [3] is < 100 nM.

Turning to `Cn1cc2c(n1)-c1cc(Cl)ccc1-n1cnc(-c3nc(C(C)(C)C)no3)c1C2` [Compound 113], in data set [2] (setting [4]), the activation at 0.1 µM was in the range of 20 to 50%. In data set [3], the Ki is < 100 nM.

With `COCc1coc(-c2ncn3c2Cc2cn(C)nc2-c2cc(OC)ccc2-3)n1` [Compound 269], in data set [2] (setting [4]), the activation at 0.1 µM is 5 to 20%. Besides, the Ki in data set [3] was < 100 nM.

Take `COc1ccc2c(c1)-c1nn(C)cc1Cc1c(-c3noc(C4COCCO4)n3)ncn1-2` (centres unmarked) [Compound 207]: the activation at 0.1 µM in data set [2] (setting [4]) is 20 to 50%. In data set [3], the Ki is < 100 nM.

Regarding `Cn1cc2c(n1)-c1cc(Cl)ccc1-n1cnc(-c3noc(C(F)(F)F)n3)c1C2` [Compound 144], the activation at 0.1 µM in data set [2] (setting [4]) was 20 to 50%. In addition, the Ki in data set [3] is < 100 nM.

For the compound `Clc1ccc2c(c1)-c1c(cnn1CC1CC1)Cc1c(-c3nc(C4CC4)no3)ncn1-2` [Compound 162], in data set [2] (setting [4]), the activation at 0.1 µM was 5 to 20%. Also, the Ki in data set [3] was < 100 nM.

`COCCn1cc2c(n1)-c1cc(OC)ccc1-n1cnc(-c3noc(COCC(F)(F)F)n3)c1C2` [Compound 313]: in data set [2] (setting [4]), the activation at 0.1 µM fell in the range of 5 to 20%. Besides, in data set [3], the Ki was < 100 nM.

For `CCOC(=O)c1ncn2c1Cn1c(C)nnc1-c1cc(OC)ccc1-2`, in data set [1] (0.01-10 mg/kg), the “Ro 15-4513 binding in hippocampus” value was “blocked the binding of Ro154513 in the hippocampus” and the “Ro 15-4513 levels/binding in cerebellum” value is reported as “did not affect binding of Ro15413 in the cerebellum”.

As to `COc1ccc2c(c1)-c1c(cnn1Cc1ccccc1)Cc1c(-c3nc(C)no3)ncn1-2` [Compound 7], in data set [2] (setting [5]), the activation at 0.1 µM was in the range of 20 to 50%. Moreover, in data set [3] (setting [6]), the Ki is < 100 nM.

On to `COc1ccc2c(c1)-c1c(cnn1C)Cc1c(-c3noc(C4(F)CC4)n3)ncn1-2` [Compound 206], for which, in data set [2] (setting [4]), the activation at 0.1 µM is 20 to 50%. In data set [3], the Ki was < 100 nM.

For `CC(C)c1nc(-c2ncn3c2Cc2cn[nH]c2-c2cc(Cl)ccc2-3)no1` [Compound 84], in data set [2] (setting [4]), the activation at 0.1 µM fell in the range of 5 to 20%. The Ki in data set [3] is < 100 nM.

In the case of `COC(C)(C)c1nc(-c2ncn3c2Cc2cn(C)nc2-c2cc(Cl)ccc2-3)no1` [Compound 214], the activation at 0.1 µM in data set [2] (setting [4]) was > 50%. Moreover, in data set [3], the Ki was < 100 nM.

Regarding `Clc1ccc2c(c1)-c1[nH]ncc1Cc1c(C#Cc3cccnc3)ncn1-2` [Compound 64], the activation at 0.1 µM in data set [2] (setting [4]) was > 50%. The Ki in data set [3] is < 100 nM.

For `Cn1cc2c(n1)-c1cc(Cl)ccc1-n1cnc(-c3nc(C4CC4)no3)c1C2` [Compound 127], the activation at 0.1 µM in data set [2] (setting [4]) lay within 20 to 50%. The Ki in data set [3] is < 100 nM.

For `Cn1cc2c(n1)-c1cc(Cl)ccc1-n1cnc(-c3noc(COC(C)(C)C)n3)c1C2` [Compound 215], in data set [2] (setting [4]), the activation at 0.1 µM lay within 20 to 50%. Also, in data set [3], the Ki was < 100 nM.

For `COc1ccc2c(c1)-c1nn(C)cc1Cc1c(-c3noc(COCC(F)(F)F)n3)ncn1-2` [Compound 183], the activation at 0.1 µM in data set [2] (setting [4]) is > 50%. Further, in data set [3], the Ki was < 100 nM.

On to `CC(C)c1noc(-c2ncn3c2Cc2cn(CC4CCCO4)nc2-c2cc(Cl)ccc2-3)n1` (centres unmarked) [Compound 193], for which the activation at 0.1 µM in data set [2] (setting [4]) was 20 to 50%. Also, the Ki in data set [3] was < 100 nM.

Take `Cn1cc2c(n1)-c1cc(Cl)ccc1-n1cnc(-c3nnc(C4CCOC4)o3)c1C2` (centres unmarked) [Compound 212]: the activation at 0.1 µM in data set [2] (setting [5]) is 5 to 20%. In data set [3] (setting [6]), the Ki was < 100 nM.

As for `COc1ccc2c(c1)-c1nn(CC3CCCO3)cc1Cc1c(-c3nnc(COCC(F)(F)F)o3)ncn1-2` (centres unmarked) [Compound 303], the activation at 0.1 µM in data set [2] (setting [4]) lay within 20 to 50%. In data set [3], the Ki is < 100 nM.

In the case of `COc1ccc2c(c1)-c1[nH]ncc1Cc1c(C#Cc3ccccn3)ncn1-2` [Compound 90], the activation at 0.1 µM in data set [2] (setting [5]) was in the range of 20 to 50%. The Ki in data set [3] (setting [6]) was < 100 nM.

Consider `COCc1noc(-c2ncn3c2Cc2cn(C)nc2-c2cc(OC)ccc2-3)n1` [Compound 170], for which, in data set [2] (setting [4]), the activation at 0.1 µM fell in the range of 20 to 50%. Besides, the Ki in data set [3] is < 100 nM.

As for `COc1ccc2c(c1)-c1nn(C)cc1Cc1c(-c3noc([C@@H]4CCCO4)n3)ncn1-2` [Compound 259], the activation at 0.1 µM in data set [2] (setting [4]) lay in the range of 5 to 20%. The Ki in data set [3] was < 100 nM.
